This passage reports IC50 results from US10150728B2, “Alkylene derivatives” (Shionogi & Co., Ltd., priority 2013, dated 2018).

SMILES strings stand for the structures.

Sequence of recombinant human ACC2 (O00763 27-2458): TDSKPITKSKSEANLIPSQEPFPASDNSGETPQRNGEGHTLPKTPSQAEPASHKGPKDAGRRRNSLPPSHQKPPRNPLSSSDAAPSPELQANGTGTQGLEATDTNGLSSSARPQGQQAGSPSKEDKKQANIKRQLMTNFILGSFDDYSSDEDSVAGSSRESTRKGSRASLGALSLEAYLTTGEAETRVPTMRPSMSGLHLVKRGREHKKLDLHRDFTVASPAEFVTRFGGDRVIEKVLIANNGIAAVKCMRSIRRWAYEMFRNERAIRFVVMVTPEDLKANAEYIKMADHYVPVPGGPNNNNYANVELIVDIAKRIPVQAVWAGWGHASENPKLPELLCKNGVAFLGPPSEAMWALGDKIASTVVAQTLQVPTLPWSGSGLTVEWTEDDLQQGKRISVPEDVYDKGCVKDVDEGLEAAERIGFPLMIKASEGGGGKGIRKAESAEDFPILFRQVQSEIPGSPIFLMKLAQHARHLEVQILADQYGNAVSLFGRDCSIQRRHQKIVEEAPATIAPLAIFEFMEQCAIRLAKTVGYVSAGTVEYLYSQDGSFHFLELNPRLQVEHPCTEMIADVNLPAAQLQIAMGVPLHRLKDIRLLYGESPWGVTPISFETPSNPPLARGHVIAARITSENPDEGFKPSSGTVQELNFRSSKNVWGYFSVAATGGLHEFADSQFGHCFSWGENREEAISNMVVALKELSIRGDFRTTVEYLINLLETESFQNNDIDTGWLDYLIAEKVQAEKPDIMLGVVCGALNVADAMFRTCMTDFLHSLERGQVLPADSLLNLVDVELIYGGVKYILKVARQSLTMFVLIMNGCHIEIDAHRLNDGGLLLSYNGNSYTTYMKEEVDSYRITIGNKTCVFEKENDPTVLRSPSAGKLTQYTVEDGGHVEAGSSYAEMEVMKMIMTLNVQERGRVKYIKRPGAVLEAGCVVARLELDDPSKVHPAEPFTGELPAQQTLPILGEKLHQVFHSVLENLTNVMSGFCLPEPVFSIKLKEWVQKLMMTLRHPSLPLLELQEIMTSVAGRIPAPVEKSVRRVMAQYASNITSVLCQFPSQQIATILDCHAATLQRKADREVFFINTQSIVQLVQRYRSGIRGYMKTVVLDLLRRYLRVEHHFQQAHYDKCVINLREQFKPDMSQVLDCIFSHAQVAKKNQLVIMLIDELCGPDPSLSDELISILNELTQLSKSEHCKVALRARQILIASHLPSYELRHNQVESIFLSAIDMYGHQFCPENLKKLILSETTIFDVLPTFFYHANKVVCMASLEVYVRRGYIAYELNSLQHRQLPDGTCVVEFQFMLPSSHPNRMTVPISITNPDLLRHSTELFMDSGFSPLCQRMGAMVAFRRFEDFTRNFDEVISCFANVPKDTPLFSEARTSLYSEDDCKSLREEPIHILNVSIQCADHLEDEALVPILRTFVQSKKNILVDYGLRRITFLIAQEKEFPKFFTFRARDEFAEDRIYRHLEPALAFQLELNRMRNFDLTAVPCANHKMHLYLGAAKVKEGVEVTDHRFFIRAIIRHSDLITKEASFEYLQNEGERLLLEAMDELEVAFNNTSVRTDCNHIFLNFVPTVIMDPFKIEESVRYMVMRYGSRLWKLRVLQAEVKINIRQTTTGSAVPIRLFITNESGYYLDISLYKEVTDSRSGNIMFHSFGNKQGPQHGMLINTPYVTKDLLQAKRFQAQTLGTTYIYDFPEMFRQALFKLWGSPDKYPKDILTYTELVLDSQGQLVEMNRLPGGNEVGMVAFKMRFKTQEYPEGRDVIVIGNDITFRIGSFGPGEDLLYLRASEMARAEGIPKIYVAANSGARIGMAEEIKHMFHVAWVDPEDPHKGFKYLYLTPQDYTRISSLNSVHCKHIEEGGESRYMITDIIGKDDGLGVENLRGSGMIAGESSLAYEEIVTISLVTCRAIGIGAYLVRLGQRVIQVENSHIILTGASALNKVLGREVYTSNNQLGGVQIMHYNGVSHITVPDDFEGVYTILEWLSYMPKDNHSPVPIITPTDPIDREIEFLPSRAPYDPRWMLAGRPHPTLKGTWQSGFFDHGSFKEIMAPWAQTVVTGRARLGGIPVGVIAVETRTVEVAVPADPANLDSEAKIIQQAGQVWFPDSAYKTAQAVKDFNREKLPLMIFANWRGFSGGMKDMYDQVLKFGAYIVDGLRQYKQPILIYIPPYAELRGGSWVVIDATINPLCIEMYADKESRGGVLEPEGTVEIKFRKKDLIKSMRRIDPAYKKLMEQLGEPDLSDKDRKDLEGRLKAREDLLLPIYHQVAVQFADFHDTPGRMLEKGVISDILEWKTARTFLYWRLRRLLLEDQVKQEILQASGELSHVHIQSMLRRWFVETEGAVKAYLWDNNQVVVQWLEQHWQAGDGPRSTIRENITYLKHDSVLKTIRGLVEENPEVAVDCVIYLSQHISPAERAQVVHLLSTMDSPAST

For this experiment, the target named is recombinant human ACC2 (Homo sapiens (Human), UniProt O00763). Description: Measurement of inhibitory activity on human ACC2 (MALDI-TOF MS, acetyl CoA to malonyl CoA conversion). Format: biochemical. Particulars: Tables 155-159. Put shortly:
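His-tagged human ACC2 (residues 27–2458) from baculovirus-infected Sf-9 cells was preincubated 1 h in pH 7.4 HEPES-KOH buffer with MgCl2, 6-10 mM potassium citrate, glutathione and BSA. Substrate solution held 1 mM ATP, 0.8 mM acetyl CoA and 25-50 mM bicarbonate. After 1–3 h at room temperature, malonyl CoA/(malonyl+acetyl CoA) was read by negative-mode MALDI-TOF MS; citrate, bicarbonate and time varied by enzyme lot.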
Turning to `CC(=O)N[C@@H](C)CO[C@H]1C[C@H](COc2nccc(N3CC(F)(F)C3)c2Cl)C1` [Compound I-323], the concentration for half-maximal inhibition (IC50) worked out at 0.345 µM.

`CC(=O)N[C@@H](C)CO[C@H]1C[C@H](COc2nccc(N3CCCCC3)c2Cl)C1` [Compound I-324]: the IC50 turned out to be 0.051 µM.

As to `CC(=O)N[C@@H](C)CO[C@H]1C[C@H](COc2nccc(N3CCCC3)c2Cl)C1` [Compound I-325], the IC50 was determined as 0.037 µM.

Consider `CC(=O)N[C@@H](C)CO[C@H]1C[C@H](COc2nccc(OCC(F)(F)F)c2Cl)C1` [Compound I-326], for which the IC50 was 0.28 µM.

As for `CC(=O)N[C@@H](C)CO[C@H]1C[C@H](COc2nccc(-n3cc(C(F)(F)F)cn3)c2Cl)C1` [Compound I-327], the half-inhibitory concentration (IC50) amounted to 0.08 µM.

Consider `CC(=O)N[C@@H](C)CO[C@H]1C[C@H](COc2nccc3c2CCN3Cc2ccccc2)C1` [Compound I-328], for which the IC50 was 0.018 µM.

In the case of `CC(=O)N[C@@H](C)CO[C@H]1C[C@H](COc2nccc3c2ccn3Cc2ccccc2)C1` [Compound I-329], the 50% inhibitory concentration (IC50) is 0.014 µM.

In the case of `CC(=O)N[C@@H](C)CO[C@H]1C[C@H](COc2nccc(N3CCC(F)CC3)c2Cl)C1` [Compound I-330], the half-maximal inhibitory concentration (IC50) came to 0.105 µM.

With `CC(=O)N[C@@H](C)CO[C@H]1C[C@H](COc2nccc3c2OCC2CCCN32)C1` (some centres unmarked) [Compound I-331], the IC50 is 0.47 µM.

For the compound `CC(=O)N[C@@H](C)CO[C@H]1C[C@H](COc2nccc(N3C4CCC3CC4)c2Cl)C1` [Compound I-332], the IC50 came to 0.056 µM.

As to `CC(=O)N[C@@H](C)CO[C@H]1C[C@H](COc2nccc(-c3csc(C)n3)c2C)C1` [Compound I-333], the 50% inhibitory concentration (IC50) was 0.203 µM.

Turning to `CC(=O)N[C@@H](C)CO[C@H]1C[C@H](COc2nccc3cc(F)ccc23)C1` [Compound I-334], the IC50 worked out at 0.179 µM.

As for `CC(=O)N[C@@H](C)CO[C@H]1C[C@H](COc2nccc(C3=CCCC3)c2Cl)C1` [Compound I-335], the half-maximal inhibitory concentration (IC50) is 0.018 µM.

In the case of `CC(=O)N[C@@H](C)CO[C@H]1C[C@H](COc2nccc(C3=CCCC3)c2C)C1` [Compound I-336], the IC50 worked out at 0.025 µM.

Turning to `CC(=O)N[C@@H](C)CO[C@H]1C[C@H](COc2nccc(N3CC4(CCC4)C3)c2Cl)C1` [Compound I-337], the 50% inhibitory concentration (IC50) turned out to be 0.007 µM.

In the case of `CC(=O)N[C@@H](C)CO[C@H]1C[C@H](COc2ncnc(N3CCCC3)c2Cl)C1` [Compound I-338], the IC50 is 0.026 µM.

Take `CC(=O)N[C@@H](C)CO[C@H]1C[C@H](COc2nccc(NC(=O)c3ccccc3)c2Cl)C1` [Compound I-339]: the IC50 stood at 0.035 µM.

Take `CC(=O)N[C@@H](C)CO[C@H]1C[C@H](COc2ncnc(NCc3cccc(Cl)c3)c2Cl)C1` [Compound I-340]: the half-maximal inhibitory concentration (IC50) is 0.021 µM.

As for `CC(=O)N[C@@H](C)CO[C@H]1C[C@H](COc2ncnc(OC(C)c3ccccc3)c2Cl)C1` (some centres unmarked) [Compound I-341], the IC50 turned out to be 0.119 µM.

Turning to `CC(=O)N[C@@H](C)CO[C@H]1C[C@H](COc2ncnc(NCc3cccc(C(F)(F)F)c3)c2Cl)C1` [Compound I-342], the concentration for half-maximal inhibition (IC50) came to 0.108 µM.

Consider `CC(=O)N[C@@H](C)CO[C@H]1C[C@H](COc2ncnc(NCc3cccc(C#N)c3)c2Cl)C1` [Compound I-343], for which the IC50 amounted to 0.118 µM.

For the compound `CC(=O)N[C@@H](C)CO[C@H]1C[C@H](COc2ncnc(NCc3ccc(Cl)cc3)c2Cl)C1` [Compound I-344], the IC50 was 0.013 µM.

Consider `CC(=O)N[C@@H](C)CO[C@H]1C[C@H](COc2ncnc(OCCc3ccccc3)c2Cl)C1` [Compound I-345], for which the IC50 was determined as 0.038 µM.

With `CC(=O)N[C@@H](C)CO[C@H]1C[C@H](COc2ncnc(OCc3cccc(C#N)c3)c2Cl)C1` [Compound I-346], the IC50 stood at 0.019 µM.

On to `CC(=O)N[C@@H](C)CO[C@H]1C[C@H](COc2ncnc(OCc3ccc(C#N)cc3)c2Cl)C1` [Compound I-347], for which the half-inhibitory concentration (IC50) worked out at 0.055 µM.

Regarding `COc1ccc(COc2ncnc(OC[C@H]3C[C@H](OC[C@H](C)NC(C)=O)C3)c2Cl)cn1` [Compound I-348], the 50% inhibitory concentration (IC50) stood at 0.057 µM.

As for `CC(=O)N[C@@H](C)CO[C@H]1C[C@H](COc2ncnc(OCc3ccc(C(F)(F)F)cc3)c2Cl)C1` [Compound I-349], the IC50 worked out at 0.039 µM.

With `CC(=O)N[C@@H](C)CO[C@H]1C[C@H](COc2ncnc(OCc3cccc(C(F)(F)F)c3)c2Cl)C1` [Compound I-350], the IC50 worked out at 0.049 µM.

With `CC(=O)N[C@@H](C)CO[C@H]1C[C@H](COc2ncnc(OCc3ccc(C(F)(F)F)nc3)c2Cl)C1` [Compound I-351], the IC50 was 0.087 µM.

For the compound `CC(=O)N[C@@H](C)CO[C@H]1C[C@H](COc2nccc3c2ccn3CC2CC2)C1` [Compound I-352], the 50% inhibitory concentration (IC50) was 0.022 µM.

Consider `CC(=O)N[C@@H](C)CO[C@H]1C[C@H](COc2ncnc(OCc3ncc(Cl)cn3)c2Cl)C1` [Compound I-353], for which the IC50 came to 0.011 µM.

Turning to `CC(=O)N[C@@H](C)CO[C@H]1C[C@H](COc2ncnc(OCc3ccc(F)cn3)c2Cl)C1` [Compound I-354], the IC50 amounted to 0.011 µM.

Regarding `CC(=O)N[C@@H](C)CO[C@H]1C[C@H](COc2ncnc(OCC3CC3)c2Cl)C1` [Compound I-355], the half-inhibitory concentration (IC50) turned out to be 0.018 µM.

As to `CC(=O)N[C@@H](C)CO[C@H]1C[C@H](COc2ncnc(OCC3CC3(F)F)c2Cl)C1` (some centres unmarked) [Compound I-356], the concentration for half-maximal inhibition (IC50) came to 0.066 µM.

Take `CC(=O)N[C@@H](C)CO[C@H]1C[C@H](COc2ncnc(OCC(C)(F)F)c2Cl)C1` [Compound I-357]: the IC50 stood at 0.103 µM.

`CC(=O)N[C@@H](C)CO[C@H]1C[C@H](COc2nccc(N3CCCC3)c2F)C1` [Compound I-358]: the half-inhibitory concentration (IC50) amounted to 0.019 µM.

For `CC(=O)N[C@@H](C)CO[C@H]1C[C@H](COc2ncnc3c2ccn3CC2CC2)C1` [Compound I-359], the 50% inhibitory concentration (IC50) came to 0.021 µM.

As for `CC(=O)N[C@@H](C)CO[C@H]1C[C@H](COc2ncnc(OCc3cc(F)ccn3)c2Cl)C1` [Compound I-360], the concentration for half-maximal inhibition (IC50) came to 0.017 µM.

Turning to `CC(=O)N[C@@H](C)CO[C@H]1C[C@H](COc2ncnc(OCc3ccc(Cl)nn3)c2Cl)C1` [Compound I-361], the IC50 came to 0.57 µM.

As for `CC(=O)N[C@@H](C)CO[C@H]1C[C@H](COc2ncnc3c2ccn3C(C)C2CC2)C1` (some centres unmarked) [Compound I-362], the IC50 was found to be 0.13 µM.

In the case of `CC(=O)N[C@@H](C)CO[C@H]1C[C@H](COc2ncnc(OCc3cc(F)ccn3)c2F)C1` [Compound I-363], the IC50 was 0.032 µM.

`CC(=O)N[C@@H](C)CO[C@H]1C[C@H](COc2nccc(N3CCC(F)(F)C3)c2Cl)C1` [Compound I-364]: the IC50 was found to be 0.044 µM.

For the compound `CC(=O)N[C@@H](C)CO[C@H]1C[C@H](COc2nccc(OC3C[C@@H]4CC[C@@H]3C4)c2Cl)C1` (some centres unmarked) [Compound I-365], the IC50 stood at 0.1 µM.

`CC(=O)N[C@@H](C)CO[C@H]1C[C@H](COc2nccc(OC3C[C@@H]4CC[C@@H]3C4)c2Cl)C1` (some centres unmarked) [Compound I-366]: the half-maximal inhibitory concentration (IC50) came out at 0.031 µM.

For `CC(=O)N[C@@H](C)CO[C@H]1C[C@H](COc2nccc(OC3CCC3)c2Cl)C1` [Compound I-367], the concentration for half-maximal inhibition (IC50) worked out at 0.113 µM.

On to `CC(=O)N[C@@H](C)CO[C@H]1C[C@H](COc2nccc(OC3CCCCC3)c2Cl)C1` [Compound I-368], for which the IC50 was found to be 0.048 µM.

Regarding `CC(=O)N[C@@H](C)CO[C@H]1C[C@H](COc2nccc(OCC3CC3C)c2Cl)C1` (some centres unmarked) [Compound I-369], the IC50 is 0.019 µM.

As to `CC(=O)N[C@@H](C)CO[C@H]1C[C@H](COc2nccc(OCC3(C)CC3)c2Cl)C1` [Compound I-370], the IC50 turned out to be 0.013 µM.

Turning to `CC(=O)N[C@@H](C)CO[C@H]1C[C@H](COc2nccc(OCC3(C#N)CC3)c2Cl)C1` [Compound I-371], the IC50 stood at 0.198 µM.

As for `CC(=O)N[C@@H](C)CO[C@H]1C[C@H](COc2nccc(OCC(C)(C)C)c2Cl)C1` [Compound I-372], the concentration for half-maximal inhibition (IC50) amounted to 0.013 µM.

Regarding `COCCOc1ccnc(OC[C@H]2C[C@H](OC[C@H](C)NC(C)=O)C2)c1Cl` [Compound I-373], the concentration for half-maximal inhibition (IC50) is 0.894 µM.

For the compound `CC(=O)N[C@@H](C)CO[C@H]1C[C@H](COc2nccc(OCC3COC3)c2Cl)C1` [Compound I-374], the half-maximal inhibitory concentration (IC50) was found to be 0.637 µM.

For `CC(=O)N[C@@H](C)CO[C@H]1C[C@H](COc2nccc(N3CCC(F)(F)CC3)c2Cl)C1` [Compound I-375], the concentration for half-maximal inhibition (IC50) was found to be 0.102 µM.

`CC(=O)N[C@@H](C)CO[C@H]1C[C@H](COc2ncnc(OCc3ccccc3)c2Cl)C1` [Compound I-376]: the IC50 turned out to be 0.007 µM.

With `CC(=O)N[C@@H](C)CO[C@H]1C[C@H](COc2ncnc(OCc3ccccn3)c2Cl)C1` [Compound I-377], the half-maximal inhibitory concentration (IC50) was found to be 0.039 µM.

Take `CC(=O)N[C@@H](C)CO[C@H]1C[C@H](COc2nccc(N3CCCC3)c2C)C1` [Compound I-378]: the 50% inhibitory concentration (IC50) came out at 0.144 µM.

Regarding `COc1c(-c2ccc(F)cc2)ccnc1OC[C@H]1C[C@H](OC[C@H](C)NC(C)=O)C1` [Compound I-379], the IC50 was determined as 0.258 µM.

On to `CC(=O)N[C@@H](C)CO[C@H]1C[C@H](COc2nccc(-c3ncc(C(F)(F)F)cn3)c2C)C1` [Compound I-380], for which the IC50 came to 0.059 µM.

As for `CC(=O)N[C@@H](C)CO[C@H]1C[C@H](COc2nccc3c2cnn3CC2CC2)C1` [Compound I-381], the 50% inhibitory concentration (IC50) stood at 0.155 µM.

In the case of `CC(=O)N[C@@H](C)CO[C@H]1C[C@H](COc2nccc3c2OCCN3Cc2ccccc2)C1` [Compound I-382], the IC50 worked out at 0.176 µM.

Regarding `CC(=O)N[C@@H](C)CO[C@H]1C[C@H](COc2ncnc(OCc3ccccc3)c2F)C1` [Compound I-383], the IC50 turned out to be 0.008 µM.

For the compound `CC(=O)N[C@@H](C)CO[C@H]1C[C@H](COc2ncnc(OCc3cccc(Cl)n3)c2Cl)C1` [Compound I-384], the IC50 is 0.364 µM.

`CC(=O)N[C@@H](C)CO[C@H]1C[C@H](COc2ncnc(OCc3cc(Cl)ccn3)c2Cl)C1` [Compound I-385]: the IC50 was 0.004 µM.

As to `CC(=O)N[C@@H](C)CO[C@H]1C[C@H](COc2ncnc(OCc3ncccc3Cl)c2Cl)C1` [Compound I-386], the concentration for half-maximal inhibition (IC50) is 0.07 µM.

For `CC(=O)N[C@@H](C)CO[C@H]1C[C@H](COc2nccc3c2cnn3Cc2ccccc2)C1` [Compound I-387], the 50% inhibitory concentration (IC50) was 0.392 µM.

A word on the IC50: it is the concentration that gives 50% inhibition.
